Several values for one entry are separate records, joined by “and”; a condition that tells them apart may be missing. Equal values may be shown once.
Experiments:
[1] = tested on: endogenous mouse Aβ (mAβ) in primary neuron-glia cultures; assay: Primary mixed neuron-glia culture, endogenous mouse Aβ ELISA; type: cell-based
Protocol: Primary mixed neuron-glia cultures were prepared from postnatal day 0 (P0) C3HBL/6 mouse brains (Harlan Labs). Cerebral cortices were dissected from P0 mouse brains and were dissociated in 2 mg/ml papain (Worthington) and 50 μg/mL DNAse I (Sigma) at 37 °C for 20 min. They were then washed three times in sterile Hank’s balanced salt solution (HBSS) to inactivate the papain and switched to 5 % fetal bovine serume (HyClone) in Neurobasal-A growth media (Gibco), which includes 0.5 mM L-glutamine (Gibco), 0.5 mM GlutaMax (Life Technologies), 0.01 % antibiotic-antimycotic (Gibco), and 0.02 % SM1 supplement (Stemcell). The tissue mixture was then triturated three times using a 5 mL pipette followed by a Pasteur pipette, and strained through a 70 μm cell strainer. The cell mixture was then centrifuged at 200xg for 3 min, and re-suspended in fresh Neurobasal-A media. They were then plated onto poly-D-lysine coated 96well plates at 100,000 cells/well. Cells were maintained in the Neurobasal-A growth media mentioned above without fetal bovine serum (FBS) at 37 °C in a humidified 5 % CO2 chamber.
Monoclonal antibodies to Aβ were generated by the Mayo Clinic Immunology Core facilities (Jacksonville, FL, USA). Ab5 recognizes an epitope in the amino terminus of Aβ (Aβ1-16), recognizes both monomeric and aggregated Aβ, and is human specific. […] Ab 2.1.3 was raised against Aβ35-42 and is specific for Aβx-42. […] For cell-based screens, Aβ was captured from conditioned medium with either Ab5, Ab38, Ab13.1.1, or Ab2.1.3 (coated at 10-50 μg/ml in EC buffer: 5 mM NaH2PO4-H2O, 20 mM Na2HPO4, 400 mM NaCl, 2.5 mM EDTA-full name, 151.5 μM BSA, 813 μM CHAPS, and 7.7 mM NaN3) on Immulon 4HBX Flat-Bottom Microfilter 96-well plates (Thermo Scientific, Waltham, MA, USA). Total Aβ level was determined by capture with Ab5 and detected with horseradish peroxidase (HRP)-conjugated 4G8 (a monoclonal antibody against Aβ17-24; Covance, Waltham, MA, USA) with the other Aβ peptides detected with HRP-conjugated Ab5. For the cell-free assay and measuring mouse endogenous Aβ, HRP-conjugated 4G8 was used as the secondary detection antibody. Aβ standards (Bachem, King of Prussia, PA, USA) were prepared by dissolving in hexafluoroisopropanol (HFIP) at 1 mg/ml with sonication, dried under nitrogen, resuspended at 2 mg/ml HFIP, sonicated again and dried under nitrogen. The resulting Aβ was resuspended in 0.01 % ammonium hydroxide, portioned into aliquots in EC buffer, and frozen at −80 °C. Following these steps, the Aβ is monomeric, as determined by size-exclusion chromatography.

[2] = Plasma CA concentration after IP injection (HPLC-MS-MS); type: in vivo, mouse (C57BL/6); conditions: mice
Protocol: (§1) 25(R)-CA powder was initially dissolved in DMSO (<4.5 % in the final mixture) and then combined with polyethylene glycol (15)-hydroxystearate (Solutol), ethanol, and water at a ratio of (15:10:75). One molar equivalent of sodium hydroxide was added to the mixture. We performed CA intraperitoneal (IP) injections to wild-type mice (C57BL/6 or CF-1). The mice were injected with 25(R)-CA on the right side of the abdomen. The injections have been performed with various time points (30 min, 1 h, 2 h, and 3 h) and with multiple doses (30 mg per kg (mg/kg), 60 mg/kg, 75 mg/kg and 100 mg/kg). The number of each cohort is 6–8. We used 30 mg/kg of CA for the time-course experiments, and for the dose–response experiments the end-point was set at 30 min. The brains and serum are harvested and frozen for brain Aβ extraction.
The plasma samples were extracted using published solid phase extraction method (72) and analyzed by HPLC-MS-MS. Briefly, 0.1 ml mouse plasma samples after adding 20 μl of D3-CA as internal standard were preconditioned with 1.4 ml of ethanol (99.9 %), and 0.5 ml of water, centrifuged at 4 °C, 4000 rpm for 10 min. This solution was then loaded onto a Sep-Pak tC18 (SPE1) solid phase extraction cartridge which were preconditioned with 70 % ethanol. […]

[3] = Tolerability of IP doses in mice; type: in vivo, mouse; conditions: up to the highest dose 100 mg/kg
Protocol: as §1

Compound: CC(CCC[C@@H](C)C(=O)O)[C@H]1CCC2C3CC=C4C[C@@H](O)CC[C@]4(C)C3CC[C@@]21C (stereo partly drawn) [Cmpd 2a, 25(R)-cholestenoic acid]
- decrease of mAβ42 production ([1]; 3 μM): ~ 60%
- Aβ42:Aβ38 ratio ([1]; 3 μM and 10 μM): significant decrease
- Aβ38 production ([1]; 10 μM): increased
- decrease of mAβ42 production ([1]; 10 μM): ~ 75%
- plasma CA concentration ([2]; 30 mg/kg IP, listed as CA): 200 ng/mL and ~ 500 nM
- concentration at 30 min ([2]; C57BL/6, mouse, plasma, intraperitoneal, 100 mg/kg IP): 4000 ng/mL and ~10 µM
- tolerability [3]: well tolerated

Source: PMC4501119, “Cholestenoic acid, an endogenous cholesterol metabolite, is a potent γ-secretase modulator” (Molecular Neurodegeneration, 2015)
